Assay [1] has as its target T1, HCV genotype 1b (BK) NS3 modified enzyme with a R155K mutation (Hepatitis C virus genotype 1b, UniProt P26663, R1181K).
T1 construct: HCV genotype 1b (BK) NS3 modified enzyme
Description: HCV NS3 protease time-resolved fluorescence (TRF) assay, genotype 1b R155K. The class given is biochemical. The note with it: Ki 1b R155K. The essentials:
(§1)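 Pre-incubation of NS3/NS4A protease with inhibitor for 10 min in pH 7.5 HEPES buffer with 10 mM DTT; 25 nM TRF peptide substrate, hydrolysis 6 h at room temperature. Fluorescence read at ex 340/em 615 nm with 400 μs delay, enzyme level set for S/B 5-20; IC50 by four-parameter fit.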

The target in assay [2] is HCV NS3 protease genotype 3a (3A-1) (Hepatitis C virus genotype 3a, UniProt Q81258). Description: HCV NS3 protease time-resolved fluorescence (TRF) assay, genotype 3a. It counts as biochemical. The conditions noted are these: Ki 3a. The essentials: as §1
Where [3] appears, read: genotype 1b (BK) NS3 R155K, single value.
[4] abbreviates: first of two values printed in the cell (not explained).
Setting [5] is: second of two values printed in the cell (not explained).

Structures can show the parent of a compound that is named as a salt.

In general, Ki refers to the equilibrium dissociation constant of an inhibitor or competing ligand from its target. High values mean a looser hold on the target, low ones a stronger hold on the target. In the case of `CC1(S(=O)(=O)NC(=O)[C@@]23C[C@H]2/C=C\CCCCC[C@@H]2NC(=O)O[C@@H]4C[C@H]4CCC/C=C/c4c(nc5ccccc5c4OCCCN4CCOCC4)O[C@@H]4C[C@@H](C(=O)N3)N(C4)C2=O)CC1` [Example 298, (1aR,5S,11Z,12aS,13aR,16S,19R,27E, 31aR)-N-[(1-methylcyclopropyl)sulfonyl]-26-[3-(morpholin-4-yl)propoxy]-3,15,33-trioxo-1,1a,3,4,5,6,7,8,9,10,12a,13,15,16,18,19,29, 30,31,31a-icosahydro-5,17:16,19-dimethanodicyclopropa[12,13:28,29][1,20,3,14,17]dioxatriazacyclononacosino[21,22-b]quinoline-13a(14H)-carboxamide], the Ki in assay [1] (setting [3]) was 0.49 nM; in assay [2], 4 nM.

For `C=C[C@@H]1C[C@]1(NC(=O)[C@@H]1C[C@@H]2CN1C(=O)[C@H](C(C)(C)C)NC(=O)O[C@@H]1CCC[C@H]1CC/C=C/Cc1c(nc3ccccc3c1OCCCO)O2)C(=O)NS(=O)(=O)C1(C)CC1` [Example 71, (3aR,7S,10S,12R,21E,24aS)-7-tert-butyl-N-[(1R,2S)-2-ethenyl-1-{[(1-methylcyclopropyl)sulfonyl]carbamoyl}cyclopropyl]-19-(3-hydroxypropoxy)-5,8-dioxo-1,2,3,3a,5,6,7,8,11,12,20,23,24,24a-tetradecahydro-10H-9,12-methanocyclopenta[18,19][1,10,3,6]dioxadiazacyclononadecino[11,12-b]quinoline-10-carboxamide], the Ki is < 0.016 nM in assay [1] (setting [3]) and 0.42 nM in assay [2].

For `C=C[C@@H]1C[C@]1(NC(=O)[C@@H]1C[C@@H]2CN1C(=O)[C@H](C(C)(C)C)NC(=O)O[C@@H]1C[C@H]1CCCCCc1c(nc3ccccc3c1OCCNC1CC1)O2)C(=O)NS(=O)(=O)C1(C)CC1` [Example 178, (1aR,5S,8S,10R,22aR)-5-tert-butyl-17-[2-(cyclopropylamino)ethoxy]-N-[(1R,2S)-2-ethenyl-1-{[(1-methylcyclopropyl)sulfonyl]carbamoyl}cyclopropyl]-3,6-dioxo-1,1a,3,4,5,6,9,10, 18,19,20,21,22,22a-tetradeca hydro-8H-7,10-methanocyclopropa[18,19][1,10,3,6] dioxadiazacyclononadecino[11,12-b] quinoline-8-carboxamide], the figures for the Ki in assay [1] (setting [3]) and in assay [2] were 0.14 nM and 3.6 nM, respectively.

For `C=C[C@@H]1C[C@]1(NC(=O)[C@@H]1C[C@@H]2CN1C(=O)[C@H](C1CCCC1)NC(=O)O[C@@H]1CCC[C@H]1CC/C=C/Cc1c(nc3ccccc3c1OCCCN1CCCCC1)O2)C(=O)NS(=O)(=O)C1(C)CC1` [Example 58, (3aR,7S,10S,12R,21E,24aS)-7-cyclopentyl-N-[(1R,2S)-2-ethenyl-1-{[(1-methylcyclopropyl)sulfonyl]carbamoyl}cyclopropyl]-5,8-dioxo-19-[3-(piperidin-1-yl)propoxy]-1,2,3,3a,5,6,7,8,11,12,20,23,24,24a-tetra decahydro-10H-9,12-methanocyclopenta[18,19][1,10,3,6] dioxadiazacyclononadecino[11,12-b] quinoline-10-carboxamide], the Ki in assay [1] (setting [3]) turned out to be 0.1 nM; in assay [2], 0.57 nM.

Take `C=C[C@@H]1C[C@]1(NC(=O)[C@@H]1C[C@@H]2CN1C(=O)[C@H](C1CCCC1)NC(=O)O[C@@H]1C[C@H]1CCCCCc1c(nc3ccccc3c1OCCN1CCOCC1)O2)C(=O)NS(=O)(=O)C1(C)CC1` [Example 121, (1aR,5S,8S,10R,22aR)-5-cyclopentyl-N-[(1R,2S)-2-ethenyl-1-{[(1-methylcyclopropyl)sulfonyl]carbamoyl}cyclopropyl]-17-[2-(morpholin-4-yl)ethoxy]-3,6-dioxo-1,1a,3,4,5,6,9,10,18,19,20,21,22, 22a-tetradeca hydro-8H-7,10-methanocyclopropa[18,19][1,10,3,6] dioxadiazacyclononadecino [11,12-b]quinoline-8-carboxamide]: the Ki in assay [1] (setting [3]) is 0.38 nM; in assay [2], 12 nM.

Take `C=C[C@@H]1C[C@]1(NC(=O)[C@@H]1C[C@@H]2CN1C(=O)[C@H](C(C)(C)C)NC(=O)O[C@@H]1C[C@H]1CCCCCc1c(nc3ccccc3c1OC1CC3CCC(C1)N3)O2)C(=O)NS(=O)(=O)C1(C)CC1` (single isomer, unassigned) [Example 274]: the values for the Ki in assay [1] (setting [4]), in assay [1] (setting [5]) and in assay [2] were 0.015 nM, 0.015 nM and 0.094 nM, respectively.

Take `C=C[C@@H]1C[C@]1(NC(=O)[C@@H]1C[C@@H]2CN1C(=O)[C@H](C1CCCCC1)NC(=O)O[C@@H]1C[C@H]1CCCCCc1c(nc3ccccc3c1OC1CC3COCC(C1)N3CC)O2)C(=O)NS(=O)(=O)C1(C)CC1` (stereo partly drawn) [Example 290, 7-{[(1aR,5S,8S,10R,22aR)-5-cyclohexyl-8-{[(1R,2S)-2-ethenyl-1-{[(1-methylcyclopropyl)sulfonyl]carbamoyl}cyclopropyl]carbamoyl}-3,6-dioxo-1,1a,3,4,5,6,9,10,18,19,20,21,22,22a-tetradecahydro-8H-7,10-methanocyclopropa[18,19][1,10,3,6]dioxadiazacyclononadecino[11,12-b]quinolin-17-yl]oxy}-9-ethyl-3-oxa-9-azoniabicyclo[3.3.1]nonane formate]: the figures for the Ki in assay [1] (setting [4]), in assay [1] (setting [5]) and in assay [2] were 0.012 nM, 0.125 nM and 1.14 nM, respectively.

Regarding `C=C[C@@H]1C[C@]1(NC(=O)[C@@H]1C[C@@H]2CN1C(=O)[C@H](C(C)(C)C)NC(=O)O[C@@H]1C[C@H]1CCCCCc1c(nc3ccccc3c1OCCCN1CC3(CCC3)C1)O2)C(=O)NS(=O)(=O)C1(C)CC1` [Example 154, (1aR,5S,8S,10R,22aR)-17-[3-(2-azaspiro[3.3]hept-2-yl)propoxy]-5-tert-butyl-N-[(1R,2S)-2-ethenyl-1-{[(1-methylcyclopropyl)sulfonyl]carbamoyl}cyclopropyl]-3,6-dioxo-1,1a,3,4,5,6,9,10,18,19,20, 21,22,22a-tetradecahydro-8H-7,10-methanocyclopropa[18,19] [1,10,3,6]dioxadiazacyclononadecino [11,12-b]quinoline-8-carboxamide], the Ki in assay [1] (setting [3]) stood at 0.11 nM; in assay [2], 1.5 nM.

In the case of `C=C[C@@H]1C[C@]1(NC(=O)[C@@H]1C[C@@H]2CN1C(=O)[C@H](C(C)(C)C)NC(=O)O[C@@H]1C[C@H]1CCCCCc1c(nc3ccccc3c1OC1CCN(CC3CC3)CC1)O2)C(=O)NS(=O)(=O)C1(C)CC1` [Example 230, (1aR,5S,8S,10R,22aR)-5-tent-butyl-17-{[1-(cyclopropylmethyl)piperidin-4-yl]oxy}-N-[(1R,2S)-2-ethenyl-1-{[(1-methylcyclopropyl)sulfonyl]carbamoyl}cyclopropyl]-3,6-dioxo-1,1a,3,4,5,6,9,10,18,19,20,21,22,22a-tetradecahydro-8H-7,10-methanocyclopropa[18,19][1,10,3,6] dioxadiazacyclononadecino[11,12-b]quinoline-8-carboxamide], the Ki is 0.065 nM in assay [1] (setting [3]) and 0.38 nM in assay [2].

For `C=C[C@@H]1C[C@]1(NC(=O)[C@@H]1C[C@@H]2CN1C(=O)[C@H](C(C)(C)C)NC(=O)O[C@@H]1C[C@H]1CCCCCc1c(nc3ccccc3c1OC1CC3CCC(C1)N3CC)O2)C(=O)NS(=O)(=O)C1(C)CC1` (single isomer, unassigned) [Example 277], the Ki in assay [1] (setting [4]) was found to be 0.008 nM; in assay [1] (setting [5]) it was 0.013 nM; in assay [2] it was 0.078 nM.

Turning to `CC1(S(=O)(=O)NC(=O)[C@@]23C[C@H]2/C=C\CCCCC[C@@H]2NC(=O)O[C@@H]4C[C@H]4CCCCCc4c(nc5ccccc5c4OCCN4CCOCC4)O[C@@H]4C[C@@H](C(=O)N3)N(C4)C2=O)CC1` [Example 301, (1aR,5S,11Z,12aS,13aR,16S,19R,31aR)—N-[(1-methylcyclopropyl)sulfonyl]-26-[2-(morpholin-4-yl)ethoxy]-3,15,33-trioxo-1,1a,3,4,5,6,7,8,9,10,12a,13,15,16,18,19,27,28,29,30,31,31a-docosahydro-5,17:16,19-dimethanodicyclopropa[12,13:28,29][1,20,3,14,17]dioxatriazacyclononacosino[21,22-b]quinoline-13a(14H)-carboxamide], the Ki in assay [1] (setting [3]) amounted to 0.35 nM; in assay [2], 5.9 nM.

Turning to `CCOc1c2c(nc3ccccc13)O[C@@H]1C[C@@H](C(=O)N[C@]3(C(=O)NS(=O)(=O)C4CC4)C[C@H]3CC)N(C1)C(=O)[C@H](C1CCCC1)NC(=O)O[C@@H]1CCC[C@H]1CC/C=C/C2` [Example 2, (3aR,7S,10S,12R,21E,24aS)-7-cyclopentyl-N-{(1R,2R)-1-[(cyclopropylsulfonyl)carbamoyl]-2-ethylcyclopropyl}-19-ethoxy-5,8-dioxo-1,2,3,3a,5,6,7,8,11,12,20,23,24,24a-tetradecahydro-10H-9,12-methanocyclopenta[18,19][1,10,3,6] dioxadiazacyclononadecino[11,12-b] quinoline-10-carboxamide], the inhibition constant (Ki) in assay [1] (setting [3]) is 2.7 nM; in assay [2], 31 nM.

On to `CC1(S(=O)(=O)NC(=O)[C@@]23C[C@H]2/C=C\CCCCC[C@@H]2NC(=O)O[C@@H]4C[C@H]4CCC/C=C/c4c(nc5ccccc5c4OCCN4CCCC4)O[C@@H]4C[C@@H](C(=O)N3)N(C4)C2=O)CC1` [Example 299, (1aR,5S,11Z,12aS,13aR,16S,19R,27E, 31aR)-N-[(1-methylcyclopropyl)sulfonyl]-3,15,33-trioxo-26-[2-(pyrrolidin-1-yl)ethoxy]-1,1a,3,4,5,6,7,8,9,10,12a,13,15,16,18,19,29, 30,31,31a-icosahydro-5,17:16,19-dimethanodicyclopropa[12,13:28,29][1,20,3, 14,17]dioxatriazacyclononacosino[21,22-b]quinoline-13a(14H)-carboxamide], for which the Ki worked out at 0.19 nM in assay [1] (setting [3]) and 3.8 nM in assay [2].

(Values after patent publication US9328138B2 (priority 2011, dated 2016).)
